Data on ten molecules can be found in PubChem BioAssay (NCI).

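Compound exposure: 48 hours, 5 concentrations, 96-well plates. At the GI50, growth is halved. TGI denotes the concentration required for complete inhibition of growth.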

Test systems include SK-MEL-5 melanoma; BT-549 breast; SK-MEL-28 melanoma; PC-3 prostate; HL-60(TB) leukemia; SW-620 colon; SF-295 CNS; MDA-MB-231 breast.
Assay in all cases: NCI tumour cell line growth inhibition, 48 h

Consider `CC[C@@H]1[C@@H](C)O[C@@](O)([C@@H](C)[C@H](O)[C@H](C)[C@H]2OC(=O)/C=C/C=C/[C@H](C)[C@@H]([C@@H](C)[C@@H](O)[C@H](C)[C@@]3(O)C[C@@H](O[C@H]4C[C@@H](O)[C@H](O)C(C)O4)[C@H](CC)[C@@H](C)O3)OC(=O)/C=C/C=C/[C@@H]2C)C[C@H]1O[C@@H]1C[C@@H](O)[C@H](O)C(C)O1` (stereo not given in full), for which the GI50 in the experiment with SK-MEL-5 melanoma was 0.0531 µM; in the experiment with BT-549 breast, 0.0569 µM; in the experiment on SK-MEL-28 melanoma, 0.0885 µM; in the experiment on PC-3 prostate, 0.0568 µM; with HL-60(TB) leukemia it was 0.0708 µM; with SW-620 colon, 0.108 µM. The GI50 with SF-295 CNS was 0.061 µM; with MDA-MB-231 breast, 0.0586 µM. The TGI was determined as 0.0992 µM with SK-MEL-5 melanoma; 0.124 µM in the experiment on BT-549 breast; 0.258 µM with SK-MEL-28 melanoma; 0.147 µM in the experiment with PC-3 prostate; 0.14 µM with HL-60(TB) leukemia; 0.454 µM in the experiment with SW-620 colon. Also, the TGI in the experiment on SF-295 CNS turned out to be 0.132 µM; in the experiment with MDA-MB-231 breast, 0.139 µM.
As to `CSc1ccc(-c2ccccc(=O)c2O)cc1`, the GI50 was 0.413 µM in the experiment on SK-MEL-5 melanoma; 0.873 µM in the experiment on BT-549 breast; 0.663 µM in the experiment with SK-MEL-28 melanoma; 0.748 µM in the experiment on PC-3 prostate; 0.283 µM in the experiment with HL-60(TB) leukemia; 0.386 µM in the experiment on SW-620 colon. Further, the GI50 is 0.437 µM with SF-295 CNS and 0.603 µM in the experiment on MDA-MB-231 breast. The TGI is 5.05 µM in the experiment on SK-MEL-5 melanoma; 35.2 µM in the experiment on BT-549 breast; 32.9 µM in the experiment on SK-MEL-28 melanoma; over 100 µM in the experiment with PC-3 prostate; 1.55 µM with HL-60(TB) leukemia; over 100 µM in the experiment on SW-620 colon. The TGI in the experiment on SF-295 CNS was 18.3 µM; in the experiment on MDA-MB-231 breast it was over 100 µM.
Regarding `CCOC(=O)c1ccc2c(c1)Cc1cc([N+](=O)[O-])ccc1-2`, the TGI with SK-MEL-5 melanoma is 44.2 µM; in the experiment with BT-549 breast, 94.2 µM; in the experiment with SK-MEL-28 melanoma, over 100 µM; in the experiment on PC-3 prostate it was over 100 µM; in the experiment on HL-60(TB) leukemia it was over 100 µM; in the experiment with SW-620 colon, over 100 µM. Moreover, the TGI with SF-295 CNS and in the experiment with MDA-MB-231 breast was over 100 µM in each case.
In the case of `CCOC(=O)C1=C(C)N=c2s/c(=C\c3ccccc3O)c(=O)n2C1c1ccc(OC)c2ccccc12` (stereo not given), the GI50 in the experiment with SK-MEL-5 melanoma is 15.6 µM; in the experiment with BT-549 breast it was 14.6 µM; in the experiment on SK-MEL-28 melanoma it was 15.5 µM; with PC-3 prostate, 23.3 µM; with HL-60(TB) leukemia it was 38.6 µM; in the experiment with SW-620 colon it was 16.6 µM. Also, the results for the GI50 with SF-295 CNS and in the experiment with MDA-MB-231 breast were 13.3 µM and 2.69 µM, respectively. The TGI was 64.8 µM in the experiment with SK-MEL-5 melanoma; over 100 µM in the experiment on BT-549 breast; 76.4 µM in the experiment on SK-MEL-28 melanoma; over 100 µM in the experiment with PC-3 prostate; over 100 µM in the experiment on HL-60(TB) leukemia; over 100 µM in the experiment with SW-620 colon. Besides, the TGI in the experiment with SF-295 CNS was found to be 30 µM; in the experiment with MDA-MB-231 breast it was 6.79 µM.
As for `O=c1cc(-c2ccccc2)oc2ccc(OC/C(=N/O)c3ccccc3)cc12`, the GI50 is 1.82 µM in the experiment with SK-MEL-5 melanoma; 1.46 µM with BT-549 breast; 8.38 µM with SK-MEL-28 melanoma; 2.46 µM in the experiment on PC-3 prostate; 2.12 µM in the experiment with HL-60(TB) leukemia; 1.74 µM in the experiment with SW-620 colon. In addition, the GI50 with SF-295 CNS was 1.25 µM; in the experiment on MDA-MB-231 breast it was 2.63 µM. Further, the TGI in the experiment with SK-MEL-5 melanoma is 11.7 µM; in the experiment with BT-549 breast, 9.01 µM; with SK-MEL-28 melanoma it was over 50 µM; in the experiment with PC-3 prostate, 16.1 µM; in the experiment with HL-60(TB) leukemia, over 50 µM; with SW-620 colon, over 50 µM. Also, the TGI was 3.34 µM in the experiment on SF-295 CNS and over 50 µM in the experiment with MDA-MB-231 breast.
Consider `O=C(c1ccco1)c1nc2cc(C(F)(F)F)ccc2nc1C(F)(F)F`, for which the GI50 in the experiment with SK-MEL-5 melanoma was over 100 µM; with BT-549 breast it was over 100 µM; with SK-MEL-28 melanoma, over 100 µM; with PC-3 prostate, over 100 µM; with HL-60(TB) leukemia it was 22.2 µM; in the experiment on SW-620 colon it was over 100 µM. Further, the GI50 in the experiment with SF-295 CNS was over 100 µM; in the experiment with MDA-MB-231 breast, 99.1 µM. In addition, the TGI was over 100 µM in the experiment with SK-MEL-5 melanoma; over 100 µM in the experiment with BT-549 breast; over 100 µM with SK-MEL-28 melanoma; over 100 µM with PC-3 prostate; 69.2 µM in the experiment with HL-60(TB) leukemia; over 100 µM in the experiment with SW-620 colon. For the same molecule, the TGI with SF-295 CNS and with MDA-MB-231 breast was over 100 µM each time.
As for `O=C(COc1ccc(/C=C2\COc3ccccc3C2=O)cc1)Nc1nccs1`, the GI50 in the experiment with SK-MEL-5 melanoma was 12.8 µM; with SK-MEL-28 melanoma, 13.2 µM; in the experiment on PC-3 prostate, 3.95 µM; with HL-60(TB) leukemia it was 1.68 µM; with SW-620 colon, 3.22 µM; in the experiment on SF-295 CNS it was 3.1 µM. Also, the GI50 in the experiment with MDA-MB-231 breast is 17.8 µM. The TGI in the experiment on SK-MEL-5 melanoma was 26.7 µM; with SK-MEL-28 melanoma, 26.1 µM; in the experiment with PC-3 prostate, 28.5 µM; with HL-60(TB) leukemia it was 3.48 µM; in the experiment on SW-620 colon, 10.2 µM; in the experiment on SF-295 CNS, 12.8 µM. The molecule further returned a TGI in the experiment with MDA-MB-231 breast of 60 µM.
For `COc1ccc2sc3cccc(NCCN(C)C)c3c(=O)c2c1`, the GI50 was 2.45 µM in the experiment with SK-MEL-5 melanoma; 5.4 µM in the experiment with BT-549 breast; 2.26 µM in the experiment with SK-MEL-28 melanoma; 2.96 µM in the experiment on PC-3 prostate; 2.16 µM in the experiment with HL-60(TB) leukemia; 2.07 µM in the experiment with SW-620 colon. The GI50 is 4.61 µM with SF-295 CNS and 1.57 µM with MDA-MB-231 breast. In addition, the TGI was 6.27 µM in the experiment with SK-MEL-5 melanoma; 18.6 µM with BT-549 breast; 5.3 µM with SK-MEL-28 melanoma; 11.4 µM in the experiment on PC-3 prostate; 4.74 µM in the experiment on HL-60(TB) leukemia; 5.57 µM in the experiment with SW-620 colon. The TGI amounted to 17.5 µM in the experiment on SF-295 CNS and 4.29 µM in the experiment with MDA-MB-231 breast.
On to `C=C(C)C1CC/C(C)=C/CCC2(C)OC2CC/C(CO)=C\C1O` (stereo not given), for which the TGI in the experiment with SK-MEL-28 melanoma, in the experiment on PC-3 prostate, in the experiment with HL-60(TB) leukemia, with SW-620 colon, in the experiment with SF-295 CNS and in the experiment on MDA-MB-231 breast was over 100 µM throughout.
For the molecule `C=CCC(N[C@@H](CO)c1ccccc1)c1cn(Cc2ccccc2Cl)c(=O)n(Cc2ccccc2Cl)c1=O` (stereo not given in full), the GI50 is over 100 µM in the experiment on SK-MEL-5 melanoma; 76.2 µM with BT-549 breast; over 100 µM in the experiment with SK-MEL-28 melanoma; 83.9 µM with PC-3 prostate; 93.2 µM in the experiment with HL-60(TB) leukemia; over 100 µM with SW-620 colon. Besides, the GI50 is over 100 µM with SF-295 CNS and 78 µM with MDA-MB-231 breast. Moreover, the TGI with SK-MEL-5 melanoma, with BT-549 breast, with SK-MEL-28 melanoma, in the experiment with PC-3 prostate, with HL-60(TB) leukemia and with SW-620 colon was over 100 µM each time. Further, the TGI with SF-295 CNS and with MDA-MB-231 breast was over 100 µM in each case.
